US20260372305A1, “A METHOD FOR CONTROLLING WEEDS” (SYNGENTA CROP PROTECTION AG, priority 2022, published 2026)
Several values for one entry are separate records, joined by “and”; a condition that tells them apart may be missing. Identical values can stand only once.

Tests used:
[1] = test system: Amaranthus tuberculatus, homozygous for the deletion of glycine at amino acid 210 in PPX2L (G210 deletion); experiment: Postemergence control of Amaranthus tuberculatus with G210 deletion in PPX2L (Example 2); type: in vivo
[2] = test system: Amaranthus tuberculatus with a mutation at amino acid 210; experiment: Field trial: control of Amaranthus tuberculatus visually assessed as % weed control (Example 3); type: in vivo
Experimental: A field trial was carried out in a plot in Canada. The plot size per replicate was set to 10 m^2. Compound 1 and the standard product saflufenacil were applied to about 4 inch (about 10 cm) tall Amaranthus tuberculatus with a mutation at amino acid 210, using a water volume of 300 I/ha. The efficacy of the tested compounds was visually assessed 14 days after the application and expressed in % weed control, whereas ratings range from 100% being complete control and 0% representing weed populations/growth similar to what is observed in the untreated check. Only species present at a sufficient density and consistency were assessed for reliable ratings.

SMILES | % Survival out of 14 repetitions ([1]; […], 0.5 g ai/ha^−1, postemergence, 14 days after application, Agridex 1% by volume) [%] | % Survival out of 14 repetitions ([1]; […], 1 g ai/ha^−1, postemergence, 14 days after application, Agridex 1% by volume) [%] | % Survival out of 14 repetitions ([1]; […], 2 g ai/ha^−1, postemergence, 14 days after application, Agridex 1% by volume) [%] | % Survival out of 14 repetitions ([1]; […], 4 g ai/ha^−1, postemergence, 14 days after application, Agridex 1% by volume) [%] | % Survival out of 14 repetitions ([1]; […], 8 g ai/ha^−1, postemergence, 14 days after application, Agridex 1% by volume) [%] | % Survival out of 14 repetitions ([1]; […], 16 g ai/ha^−1, postemergence, 14 days after application, Agridex 1% by volume) [%] | % Survival out of 14 repetitions ([1]; […], 32 g ai/ha^−1, postemergence, 14 days after application, Agridex 1% by volume) [%] | % Survival out of 14 repetitions ([1]; […], 64 g ai/ha^−1, postemergence, 14 days after application, Agridex 1% by volume) [%] | plant survival ([1]; at or beyond 32 g ai/ha) | control of PPO inhibitor herbicide resistant Amaranthus tuberculatus with a mutation at amino acid 210 compared with fomesafen ([1]; in vivo) | control of Amaranthus tuberculatus with a mutation at codon 210 compared to saflufenacil [2] | % Survival out of 14 repetitions ([1]; in vivo) | plant survival ([1]; in vivo)
CCOC(=O)[C@]1(C)CC(c2cc(-n3c(=O)n(C)c(=S)n(C)c3=O)c(F)cc2Cl)=NO1 [compound 1, ethyl (5S)-3-[2-chloro-5-(3,5-dimethyl-2,6-dioxo-4-thioxo-1,3,5-triazinan-1-yl)-4-fluoro-phenyl]-5-methyl-4H-isoxazole-5-carboxylate] | 100 | 100 | 100 | 100 | 86 | 50 | 0 | 0 | no plants survived | superior control | equivalent, if not slightly improved control | – | –
CS(=O)(=O)NC(=O)c1cc(Oc2ccc(C(F)(F)F)cc2Cl)ccc1[N+](=O)[O-] [fomesafen, reference compound] | – | – | – | – | – | – | – | – | – | – | – | 100% and 93% | significant plant survival
